Measured values as given in ChEMBL document CHEMBL1201862, “PubChem BioAssay data set” (2004).
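1) Cells in 96-well plates. 2) Compound, 48 h, 5 concentrations. 3) Linear interpolation between surrounding doses. 4) Unreached endpoint = highest concentration. Abbreviation: GI50, concentration required for 50% inhibition of growth.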 Active and inactive are the calls of the source. Rule as the data show it: active = GI50 up to about 1.1 µM and inactive = higher.

Experiments:
Experiment in all cases: inhibition of tumour cell growth, NCI panel, 48 h
[1] = test system: ACHN
[2] = test system: CAKI-1
[3] = test system: COLO 205
[4] = test system: HL-60
[5] = test system: Hs-578T
[6] = test system: LOX IMVI
[7] = test system: M14
[8] = test system: MCF7
[9] = test system: MDA-MB-231
[10] = test system: MOLT-4
[11] = test system: NCI-H23
[12] = test system: NCI-H460
[13] = test system: OVCAR-3
[14] = test system: OVCAR-8
[15] = test system: PC-3
[16] = test system: SF-539
[17] = test system: SNB-75
[18] = test system: SW-620
[19] = test system: TK-10
[20] = test system: UO-31

Row | SMILES | GI50 [1] | GI50 [2] | GI50 [3] | GI50 [4] | GI50 [5] | GI50 [6] | GI50 [7] | GI50 [8] | GI50 [9] | GI50 [10] | GI50 [11] | GI50 [12] | GI50 [13] | GI50 [14] | GI50 [15] | GI50 [16] | GI50 [17] | GI50 [18] | GI50 [19] | GI50 [20]
1 | C=C1CC2(C)CCC(OC(=O)C3(C)OC3C)C(C)(OC(C)=O)C2CC1=C(C)C (stereo not given) | > 100 µM (inactive) | > 10 µM (inactive) | > 100 µM (inactive) | 24.9 µM (inactive) | > 100 µM (inactive) | > 100 µM (inactive) | > 100 µM (inactive) | > 100 µM (inactive) | > 100 µM (inactive) | > 100 µM (inactive) | > 100 µM (inactive) | > 100 µM (inactive) | > 100 µM (inactive) | > 100 µM (inactive) | > 100 µM (inactive) | > 100 µM (inactive) | > 100 µM (inactive) | > 100 µM (inactive) | > 100 µM (inactive) | > 100 µM (inactive)
2 | COc1cc(OC)cc(OCc2nc3cc(C(F)(F)F)ccc3nc2-c2ccccc2)c1 | > 100 µM (inactive) | > 100 µM (inactive) | > 100 µM (inactive) | > 100 µM (inactive) | 69.2 µM (inactive) | > 100 µM (inactive) | > 100 µM (inactive) | > 100 µM (inactive) | 76.4 µM (inactive) | > 100 µM (inactive) | > 100 µM (inactive) | > 100 µM (inactive) | > 100 µM (inactive) | > 100 µM (inactive) | > 100 µM (inactive) | > 100 µM (inactive) | > 100 µM (inactive) | > 100 µM (inactive) | > 100 µM (inactive) | > 100 µM (inactive)
3 | O=c1oc2ccccc2c(Nc2ccc3c(c2)Oc2ccccc2O3)c1[N+](=O)[O-] | 16.3 µM (inactive) | 54.8 µM (inactive) | > 100 µM (inactive) | > 100 µM (inactive) | 30.1 µM (inactive) | 36.9 µM (inactive) | 30.3 µM (inactive) | 20.3 µM (inactive) | 17.1 µM (inactive) | 43 µM (inactive) | 20.3 µM (inactive) | 42.2 µM (inactive) | 24.6 µM (inactive) | 18.8 µM (inactive) | 17.7 µM (inactive) | 19.2 µM (inactive) | 14.7 µM (inactive) | 22.7 µM (inactive) | 21.2 µM (inactive) | > 100 µM (inactive)
4 | CC(C)C1OC(=O)C(Cc2ccccc2)N(C)C(=O)C(C(C)C)OC(=O)C(Cc2ccccc2)N(C)C(=O)C(C(C)C)OC(=O)C(Cc2ccccc2)N(C)C1=O (stereo not given) | 0.603 µM (active) | 0.979 µM (active) | 0.682 µM (active) | 0.498 µM (active) | 1.18 µM (inactive) | 0.802 µM (active) | 0.713 µM (active) | 0.647 µM (active) | 1.37 µM (inactive) | 0.508 µM (active) | 1.03 µM (active) | 0.865 µM (active) | 0.598 µM (active) | 0.723 µM (active) | 0.687 µM (active) | 1.03 µM (active) | 1.63 µM (inactive) | 0.685 µM (active) | 0.757 µM (active) | 0.307 µM (active)
5 | Cc1nc2ccc(S(=O)(=O)O)cc2c(=O)n1-c1ccc(C(=O)NN2C(=O)C(Cl)C2c2cccs2)cc1 (stereo not given) | > 100 µM (inactive) | > 100 µM (inactive) | > 100 µM (inactive) | 17.8 µM (inactive) | > 100 µM (inactive) | > 100 µM (inactive) | 18.2 µM (inactive) | > 100 µM (inactive) | 22.9 µM (inactive) | > 100 µM (inactive) | > 100 µM (inactive) | > 100 µM (inactive) | > 100 µM (inactive) | > 100 µM (inactive) | > 100 µM (inactive) | 48 µM (inactive) | 50.4 µM (inactive) | > 100 µM (inactive) | > 100 µM (inactive) | > 100 µM (inactive)
6 | C/C=C(\C)C(=O)OC1CC(OC(C)=O)C2(C(=O)OC)COC3C2C1(C)C1C2(C(=O)OC)OCC1(C3O)C1(O)C3CC(C4(O)C=COC4O3)C1(C)O2 (stereo not given) | > 100 µM (inactive) | > 100 µM (inactive) | > 100 µM (inactive) | 92 µM (inactive) | > 100 µM (inactive) | > 100 µM (inactive) | > 100 µM (inactive) | > 100 µM (inactive) | > 100 µM (inactive) | > 100 µM (inactive) | > 100 µM (inactive) | > 100 µM (inactive) | > 100 µM (inactive) | > 100 µM (inactive) | > 100 µM (inactive) | > 100 µM (inactive) | > 100 µM (inactive) | > 100 µM (inactive) | > 100 µM (inactive) | > 100 µM (inactive)
7 | CNc1ccc(C(=O)CC(O)CCC(C)C2OC(=O)CC(O)CC(=O)CC(O)CC(O)CC(O)CC(O)CC3(O)CC(O)C(C(=O)N4CCOCC4)C(CC(OC4OC(C)C(O)C(N)C4O)\C=C/C=C\C=C/C=C/C=C/C=C\C=C/C2C)O3)cc1 (stereo not given) | 0.19 µM (active) | 0.227 µM (active) | 0.416 µM (active) | 0.373 µM (active) | 0.294 µM (active) | 0.243 µM (active) | 0.328 µM (active) | 0.285 µM (active) | 0.236 µM (active) | 0.399 µM (active) | 0.329 µM (active) | 0.27 µM (active) | 0.435 µM (active) | 0.376 µM (active) | 0.355 µM (active) | 0.351 µM (active) | 0.409 µM (active) | 0.475 µM (active) | 0.247 µM (active) | 0.195 µM (active)
8 | c1ccc(CN2CCN3CCN(CC2)CCN(Cc2ccccc2)CC3)cc1 | 20.7 µM (inactive) | 30.3 µM (inactive) | 1.93 µM (inactive) | 2.55 µM (inactive) | 14.6 µM (inactive) | 8.81 µM (inactive) | 5.51 µM (inactive) | 5.5 µM (inactive) | 5.43 µM (inactive) | 8.75 µM (inactive) | 5.05 µM (inactive) | 6.15 µM (inactive) | 7.91 µM (inactive) | 9.73 µM (inactive) | 4.97 µM (inactive) | 8.26 µM (inactive) | 4.05 µM (inactive) | 13.7 µM (inactive) | 11.4 µM (inactive) | 31.7 µM (inactive)
9 | N#Cc1c(N2CCCC2)ncn(Cc2ccccc2)c1=S | > 92.7 µM (inactive) | > 48 µM (inactive) | > 100 µM (inactive) | > 100 µM (inactive) | > 54.8 µM (inactive) | > 100 µM (inactive) | > 100 µM (inactive) | 49.1 µM (inactive) | > 88.3 µM (inactive) | > 100 µM (inactive) | > 100 µM (inactive) | > 100 µM (inactive) | 60.5 µM (inactive) | 57.1 µM (inactive) | 71.3 µM (inactive) | 40.1 µM (inactive) | 25.8 µM (inactive) | > 100 µM (inactive) | > 100 µM (inactive) | > 100 µM (inactive)
10 | COc1cc(C23OCC(Cc4cc5c(cc42)OCO5)C3CO)cc(OC)c1OC (stereo not given) | 7.13 µM (inactive) | 5.79 µM (inactive) | 2.55 µM (inactive) | 2.76 µM (inactive) | 18.5 µM (inactive) | 1.97 µM (inactive) | 3.64 µM (inactive) | 0.21 µM (active) | 6.4 µM (inactive) | 13.2 µM (inactive) | 3.45 µM (inactive) | 3.23 µM (inactive) | 1.46 µM (inactive) | 4.14 µM (inactive) | 1.85 µM (inactive) | 2.52 µM (inactive) | 2.23 µM (inactive) | 3.11 µM (inactive) | > 24.4 µM (inactive) | 8.95 µM (inactive)
11 | CN(C)c1ccc(/C=C(\NC(=O)c2ccccc2)c2nn(C)c(=O)o2)cc1 | > 100 µM (inactive) | > 100 µM (inactive) | > 100 µM (inactive) | 34.6 µM (inactive) | 62.1 µM (inactive) | 60.1 µM (inactive) | 46 µM (inactive) | > 100 µM (inactive) | > 100 µM (inactive) | 35.3 µM (inactive) | > 100 µM (inactive) | 44.4 µM (inactive) | 43.9 µM (inactive) | 26.7 µM (inactive) | > 100 µM (inactive) | 33.5 µM (inactive) | 16.9 µM (inactive) | 52 µM (inactive) | > 100 µM (inactive) | > 100 µM (inactive)
12 | CC(=O)OC1CC[C@@]2(C)C(CC[C@]3(C)C2CC=C2[C@@H]4CC(C)(C)CCC4(C)CCC23C)[C@@]1(C)C(=O)O (stereo not given in full) | 12.1 µM (inactive) | 18.5 µM (inactive) | 19.1 µM (inactive) | 31.3 µM (inactive) | 20.5 µM (inactive) | 13.8 µM (inactive) | 19.9 µM (inactive) | 14.9 µM (inactive) | 20.9 µM (inactive) | 17.6 µM (inactive) | 11.4 µM (inactive) | 10.7 µM (inactive) | 15.1 µM (inactive) | 14 µM (inactive) | 6.61 µM (inactive) | 19.9 µM (inactive) | 23 µM (inactive) | 13.5 µM (inactive) | 22.3 µM (inactive) | 16 µM (inactive)
13 | c1ccc2c(c1)nc1n2CCNC1 | > 100 µM (inactive) | > 100 µM (inactive) | > 100 µM (inactive) | > 100 µM (inactive) | > 100 µM (inactive) | > 100 µM (inactive) | > 100 µM (inactive) | > 100 µM (inactive) | > 100 µM (inactive) | > 100 µM (inactive) | > 100 µM (inactive) | > 100 µM (inactive) | 63 µM (inactive) | > 100 µM (inactive) | > 100 µM (inactive) | > 100 µM (inactive) | > 100 µM (inactive) | > 100 µM (inactive) | > 100 µM (inactive) | > 100 µM (inactive)
